Experimental data as given in patent publication US6379713B1, “Method of treating an itch with iodine” (priority 2001, dated 2002).

What was measured:
itch = conditions: cited from earlier work; for time necessary to stop the immediate itch: topical application
itching skin = test: rubbing iodine condensate on cotton fiber against itching skin; assay type: in vivo, mammal
Method: A concentration of iodine in the range of 0.01 to 2 mg/inch^2 of skin surface is found to provide analgesia. An applicator useful for carrying and discharging the analgesic element, in its amorphous form, has been made by loading cotton fiber over a bed of hard iodine crystals sitting at the bottom of a fuming chamber. The bottom of the fiber stack is placed in contact to the top of the iodine bed. By warming the crystals, the reservoir fiber is charged with a fine, soft, rising tan colored sublimate of the hard crystal. At a temperature of 35.deg.C., 2 days is sufficient to charge a fiber with sublimated iodine in a range, by weight, of 1 to 30 mg/g of the wipe fiber. The charged fiber has a tan color, appearing as of having been dipped in liquid iodophor and then dried. Individual crystals of iodine are not readily observed and the charged wipe feels softer than the original fiber. On dipping the charged fiber in water, its tan coloration disappears.
Itching skin is found to be efficiently treated by rubbing the cotton fiber coated with condensed iodine against the itch.
The skin is not irritated by treatment from a wipe preferably comprising about 10 mg of condensate per gram of fiber comprising cotton. […] A preferred treatment supplies about 0.05 to 1 mg/inch^2 of skin. An iodine concentration of over 2 mg/inch^2 of skin begins to cause pain, while still relieving the itch.

## CN(C)CCOC(c1ccccc1)c1ccccc1 [diphenhydramine]
itch
  time necessary to stop the immediate itch: about 15 minutes

## II [iodine]
Itching skin; amorphous tan condensate, single treatment
  time to relief from an itch after application: ≤ 1 min
Itching skin; cotton fiber coated with condensed iodine, rubbed in forceful back and forth motion
  time to relieve the urge to scratch after application: within three minutes
Itching skin; while still relieving the itch
  iodine concentration on skin that begins to cause pain: over 2 mg/inch^2
Itching skin; wipe with about 10 mg of condensate per gram of cotton fiber
  skin irritation: not irritated

## CCOC(=O)c1ccc(N)cc1 [benzocaine]
itch
  time necessary to stop the immediate itch: ≤ 5 min

## CC(=O)OCC(=O)[C@@]1(O)CC[C@H]2[C@@H]3CCC4=CC(=O)CC[C@]4(C)[C@H]3[C@@H](O)C[C@@]21C [hydrocortisone acetate]
itch
  time necessary to stop the immediate itch: about 15 minutes

## COC1=CC(=O)C[C@@H](C)[C@]12Oc1c(Cl)c(OC)cc(OC)c1C2=O [griseofulvin]
itch; antibiotic composition
  time necessary to stop the immediate itch (time to disinfect): several days
